Data published in PMC3914206.

How the values were obtained:
Assay type in all cases: binding
Parameters in all cases: KINOMEscan: ABL1(F317L)-phosphorylated / KINOMEscan: ABL1(H396P)-nonphosphorylated / KINOMEscan: ABL1(H396P)-phosphorylated / KINOMEscan: ABL1(M351T)-phosphorylated / KINOMEscan: ABL1(T315I)-phosphorylated / KINOMEscan: ABL1-nonphosphorylated / KINOMEscan: ABL1-phosphorylated / KINOMEscan: ACVR2A / KINOMEscan: ACVR2B / KINOMEscan: ADCK3 / KINOMEscan: ADCK4 / KINOMEscan: AKT1 / KINOMEscan: AKT3 / KINOMEscan: ALK / KINOMEscan: ARK5 / KINOMEscan: AURKA / KINOMEscan: AURKC / KINOMEscan: BIKE / KINOMEscan: BMPR1A / KINOMEscan: BMPR1B / KINOMEscan: BMX / KINOMEscan: BRK / KINOMEscan: BRSK1 / KINOMEscan: BRSK2 / KINOMEscan: CAMK1 / KINOMEscan: CAMK1D / KINOMEscan: CAMK1G / KINOMEscan: CAMK2A / KINOMEscan: CAMK2B / KINOMEscan: AAK1 / KINOMEscan: CAMK2D / KINOMEscan: CAMK2G / KINOMEscan: ABL1(F317I)-nonphosphorylated / KINOMEscan: ABL1(F317I)-phosphorylated / KINOMEscan: ABL1(F317L)-nonphosphorylated: unit: % Ctrl
Details in all cases: Compound Concentration 10 µM
panel of 442 kinases [1] = biological target: T1, panel of 442 kinases (Homo sapiens, UniProt P36888, K663Q)
T1 construct: purchased KINOMEscan
T1 sequence (P36888 27-993 K663Q): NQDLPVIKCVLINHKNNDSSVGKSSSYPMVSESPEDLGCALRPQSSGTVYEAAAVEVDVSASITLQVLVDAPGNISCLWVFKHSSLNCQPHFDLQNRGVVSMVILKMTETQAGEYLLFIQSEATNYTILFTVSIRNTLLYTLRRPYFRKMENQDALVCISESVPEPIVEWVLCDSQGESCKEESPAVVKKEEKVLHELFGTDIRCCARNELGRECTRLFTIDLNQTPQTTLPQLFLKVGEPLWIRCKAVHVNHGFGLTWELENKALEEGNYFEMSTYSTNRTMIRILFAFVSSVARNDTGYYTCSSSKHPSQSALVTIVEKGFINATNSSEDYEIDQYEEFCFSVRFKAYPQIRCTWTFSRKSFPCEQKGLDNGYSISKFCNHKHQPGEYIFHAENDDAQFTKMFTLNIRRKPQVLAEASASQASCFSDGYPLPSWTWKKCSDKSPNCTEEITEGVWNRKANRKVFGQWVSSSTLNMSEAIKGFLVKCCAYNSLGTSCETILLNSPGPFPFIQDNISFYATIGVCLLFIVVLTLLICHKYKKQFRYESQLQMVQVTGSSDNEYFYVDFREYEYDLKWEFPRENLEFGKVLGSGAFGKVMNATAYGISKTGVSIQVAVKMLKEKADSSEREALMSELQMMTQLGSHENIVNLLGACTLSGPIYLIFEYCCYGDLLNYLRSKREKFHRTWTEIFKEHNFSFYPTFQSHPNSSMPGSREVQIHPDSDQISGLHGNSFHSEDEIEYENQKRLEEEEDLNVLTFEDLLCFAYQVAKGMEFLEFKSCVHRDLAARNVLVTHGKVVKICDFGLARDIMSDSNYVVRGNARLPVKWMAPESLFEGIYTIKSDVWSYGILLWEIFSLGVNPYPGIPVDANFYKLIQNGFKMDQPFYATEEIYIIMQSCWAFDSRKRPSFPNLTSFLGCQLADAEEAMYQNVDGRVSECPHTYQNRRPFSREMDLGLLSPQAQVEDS
Excerpt: (§1) We assessed the selectivity of members of this scaffold using the KINOMEscan methodology across a near comprehensive panel of 442 kinases [[18,27]].

panel of 442 kinases [2] = biological target: T2, panel of 442 kinases (Homo sapiens, UniProt Q13555)
T2 construct: purchased KINOMEscan
Excerpt: as §1

panel of 442 kinases [3] = biological target: T3, panel of 442 kinases (Homo sapiens, UniProt P28482)
T3 construct: purchased KINOMEscan
Excerpt: as §1

T3 sequence (P28482 whole entry): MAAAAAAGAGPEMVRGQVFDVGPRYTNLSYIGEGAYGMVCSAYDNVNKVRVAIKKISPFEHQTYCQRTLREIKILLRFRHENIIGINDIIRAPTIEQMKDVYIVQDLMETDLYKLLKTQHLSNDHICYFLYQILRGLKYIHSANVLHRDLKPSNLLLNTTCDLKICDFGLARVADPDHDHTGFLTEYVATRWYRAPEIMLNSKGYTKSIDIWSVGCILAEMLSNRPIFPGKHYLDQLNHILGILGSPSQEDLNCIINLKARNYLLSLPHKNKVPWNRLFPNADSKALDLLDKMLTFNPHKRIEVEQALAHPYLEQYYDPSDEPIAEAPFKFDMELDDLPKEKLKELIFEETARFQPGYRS
T2 sequence (Q13555 whole entry): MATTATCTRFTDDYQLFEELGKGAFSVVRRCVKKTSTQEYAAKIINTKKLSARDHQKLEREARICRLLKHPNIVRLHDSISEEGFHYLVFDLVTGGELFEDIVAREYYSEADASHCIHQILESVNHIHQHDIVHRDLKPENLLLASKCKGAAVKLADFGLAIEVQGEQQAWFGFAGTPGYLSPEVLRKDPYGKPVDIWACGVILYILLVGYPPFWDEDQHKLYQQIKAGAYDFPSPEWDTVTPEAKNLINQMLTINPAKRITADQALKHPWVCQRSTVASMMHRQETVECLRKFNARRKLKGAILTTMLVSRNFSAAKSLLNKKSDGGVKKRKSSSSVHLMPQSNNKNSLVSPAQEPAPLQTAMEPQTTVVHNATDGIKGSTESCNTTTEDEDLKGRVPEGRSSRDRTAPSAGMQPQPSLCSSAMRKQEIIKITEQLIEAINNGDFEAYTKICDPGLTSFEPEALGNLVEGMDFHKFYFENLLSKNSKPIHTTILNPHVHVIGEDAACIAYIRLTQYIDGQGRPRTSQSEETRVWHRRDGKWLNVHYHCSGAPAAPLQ

| Structure (SMILES) | KINOMEscan: FLT3(K663Q) (panel of 442 kinases [1]) | KINOMEscan: CAMK2G (panel of 442 kinases [2]) | KINOMEscan: ERK2 (panel of 442 kinases [3]) |
| --- | --- | --- | --- |
| COc1cc(C(=O)N2CCC(N3CCN(C)CC3)CC2)ccc1Nc1ncc2c(n1)N(C1CCCC1)c1ccccc1C(=O)N2C [Compound 25, 11-cyclopentyl-2-((2-methoxy-4-(4-(4-methylpiperazin-1-yl)piperidine-1-carbonyl)phenyl)amino)-5-methyl-5H-benzo[e]pyrimido[5,4-b][1,4]diazepin-6(11H)-one] | 100 | 98 | 98 |
| CCOc1cc(C(=O)N2CCC(N3CCN(C)CC3)CC2)ccc1Nc1ncc2c(n1)N(C1CCCC1)c1ccccc1C(=O)N2C [Compound 26] | 100 | 94 | 100 |
| COc1cc(C(=O)N2CCC(N3CCN(C)CC3)CC2)ccc1Nc1ncc2c(n1)N1CCc3cccc(c31)C(=O)N2C [Compound 24] | 100 | 76 | 88 |
| COc1cc(C(=O)N2CCC(N3CCN(C)CC3)CC2)ccc1Nc1ncc2c(n1)N(C)c1ccccc1C(=O)N2C [15 (LRRK2-IN-1)] | 97 | 47 | 85 |
